From US12012398B2, “Bicyclic compounds as androgen receptor modulators” (NIDO BIOSCIENCES, INC., priority 2021, dated 2024) come the findings set out here.

Structures can show the parent of a compound that is named as a salt.

By IC50 is commonly meant the midpoint of a concentration-inhibition curve.

The test system of this test is LNCaP cells expressing ARR2PB-FireflyLuc and CMV-RenillaLuc. The test can be described thus: LNCaP ARR2PB-FireflyLuc reporter assay, antagonist mode.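 Note: IC50 bins in nM.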 It counts as cell-based. To be noted: Homo sapiens, LNCaP, 48 h, +0.5 nM DHT, 48 h at 37° C., read-out: LNCap Antagonist Archive: IC50. On the procedure: LNCaP cells expressing ARR2PB-FireflyLuc and CMV-RenillaLuc were treated with indicated concentrations of test compounds, enzalutamide (negative control), or DHT (positive control)+/−0.5 nM DHT for 48 h at 37° C. Fluorescent signals were read with the ImageXpress Micro Confocal System. Remaining activity (antagonist mode) was calculated as % Remaining Activity=100×[(ReadSample−LCave)/(HCave−LCave)] where HC is cells treated with 0.5 nM DHT only and LC is cells treated with 10 uM enzalutamide+0.5 nM DHT. Activation (agonist mode) was calculated as % Activation=100×[(ReadSample−LCave)/(HCave−LCave)] where HO is cells treated with 1 uM DHT and LC is cells treated with DMSO. Dose response curves and IC50 values were calculated using non-linear regression analysis in XLfit.
The designation “A” indicates an IC50 value of >10 μM, “B” indicates an IC50 value between 1 μM and 10 μM; “C” indicates an IC50 value between 100 nM and 1 μM; and “D” indicates an IC50 value of less than 100 nM.
`CC(C)N(CC1CCCO1)C(=O)c1cc2ccc(F)cc2[nH]1` (centres unmarked) [Example 4, 6-fluoro-N-isopropyl-N-(oxolan-2-ylmethyl)-1H-indole-2-carboxamide]: the half-inhibitory concentration (IC50) is above 10000 nM.
For `CN(C(=O)c1cc2cccc(Cl)c2[nH]1)C1CC(C)(C)NC(C)(C)C1` [Example 75, 7-chloro-N-methyl-N-(2,2,6,6-tetramethylpiperidin-4-yl)-1H-indole-2-carboxamide], the 50% inhibitory concentration (IC50) was above 10000 nM.
The value for `CC1(C)CC(NC(=O)c2cc3cccc(Cl)c3[nH]2)CO1` (centres unmarked) [Example 63, 7-chloro-N-(5,5-dimethyloxolan-3-yl)-1H-indole-2-carboxamide] was above 10000 nM; that for `NCCn1c(C(=O)NC23CC(F)(C2)C3)cc2ccnc(Cl)c21` [Example 137, 1-(2-aminoethyl)-7-chloro-N-{3-fluorobicyclo[1.1.1]pentan-1-yl}pyrrolo[2,3-c]pyridine-2-carboxamide] was above 10000 nM.
Then `C[C@H]1COC[C@H]1NC(=O)c1cc2cccc(Cl)c2[nH]1` [Example 65, 7-chloro-N-[(3S,4R)-4-methyloxolan-3-yl]-1H-indole-2-carboxamide], with 1000 to 10000 nM; and `O=C(NC12CC(C1)C2)c1cc2ccncc2[nH]1` [Example 103, N-[bicyclo[1.1.1]pentan-1-yl]-1H-pyrrolo[2,3-c]pyridine-2-carboxamide], with above 10000 nM.
Then `CN(C(=O)c1cc2cccc(C(F)(F)F)c2[nH]1)c1ccc(C#N)cc1` [Example 27, N-(4-cyanophenyl)-N-methyl-7-(trifluoromethyl)-1H-indole-2-carboxamide], with 1000 to 10000 nM; and `C[C@@H]1COC[C@H]1NC(=O)c1cc2cccc(Cl)c2[nH]1` [Example 64, 7-chloro-N-[(3S,4S)-4-methyloxolan-3-yl]-1H-indole-2-carboxamide], with 1000 to 10000 nM; and `CN(C(=O)c1cc2cccc(Cl)c2[nH]1)C12CC(C1)C2` [Example 82, N-[bicyclo[1.1.1]pentan-1-yl]-7-chloro-N-methyl-1H-indole-2-carboxamide], with 100 to 1000 nM.
As for `CCn1c(C(=O)NC23CC(F)(C2)C3)cc2ccnc(Cl)c21` [Example 111, 7-chloro-1-ethyl-N-[3-fluorobicyclo[1.1.1]pentan-1-yl]pyrrolo[2,3-c]pyridine-2-carboxamide], the IC50 was below 100 nM.
Then `CN(C(=O)c1cc2cccc(Cl)c2[nH]1)C1CCNC1` (centres unmarked) [Example 40, 7-chloro-N-methyl-N-(pyrrolidin-3-yl)-1H-indole-2-carboxamide trifluoroacetic acid salt], with above 10000 nM.
Take `N#Cc1ccc(N(C(=O)c2cc3cccc(Cl)c3[nH]2)C2CCOC2)cc1` (centres unmarked) [Example 83, 7-chloro-N-(4-cyanophenyl)-N-(oxolan-3-yl)-1H-indole-2-carboxamide]: the IC50 is below 100 nM.
The value for `O=C(NC12CC(F)(C1)C2)c1cc2c(Cl)nccc2s1` [Example 158, 4-chloro-N-(3-fluorobicyclo[1.1.1]pentan-1-yl)thieno[3,2-c]pyridine-2-carboxamide] was 100 to 1000 nM.
Then `CC(C)N(C(=O)c1cc2ccc(F)cc2[nH]1)c1ccccc1` [Example 11, 6-fluoro-N-isopropyl-N-phenyl-1H-indole-2-carboxamide], with 100 to 1000 nM; and `CN(C(=O)c1cc2cccc(C(F)(F)F)c2[nH]1)c1ccccc1` [Example 25, N-methyl-N-phenyl-7-(trifluoromethyl)-1H-indole-2-carboxamide], with 100 to 1000 nM.
On to `COCCN(C(=O)c1cc2ccc(F)cc2[nH]1)c1ncccn1` [Example 161], for which the IC50 was 1000 to 10000 nM.
As for `CN(C(=O)c1cc2cccc(C(F)(F)F)c2[nH]1)c1ccccn1` [Example 26, N-methyl-N-(pyridin-2-yl)-7-(trifluoromethyl)-1H-indole-2-carboxamide], the IC50 lay within 100 to 1000 nM.
As for `COCCn1c(C(=O)NC23CC(F)(C2)C3)cc2ccnc(Cl)c21` [Example 139, 7-chloro-N-{3-fluorobicyclo[1.1.1]pentan-1-yl}-1-(2-methoxyethyl)pyrrolo[2,3-c]pyridine-2-carboxamide], the 50% inhibitory concentration (IC50) lay within 1000 to 10000 nM.
On to `Cn1c(C(=O)NC23CC(F)(C2)C3)cc2ccnc(C#N)c21` [Example 131, 7-cyano-N-{3-fluorobicyclo[1.1.1]pentan-1-yl}-1-methylpyrrolo[2,3-c]pyridine-2-carboxamide], for which the IC50 was in the range of 100 to 1000 nM.
For the compound `COCCN(C(=O)c1cc2ccc(F)cc2[nH]1)c1ccc(Cl)cn1` [Example 160], the 50% inhibitory concentration (IC50) lay within 1000 to 10000 nM.
The value for `CN(C(=O)c1cc2cccc(C#N)c2[nH]1)c1ccccc1` [Example 21, 7-cyano-N-methyl-N-phenyl-1H-indole-2-carboxamide] was 100 to 1000 nM; that for `CN(C(=O)c1cc2cccc(Cl)c2[nH]1)C12CC(C#N)(C1)C2` [Example 86, 7-chloro-N-[3-cyanobicyclo[1.1.1]pentan-1-yl]-N-methyl-1H-indole-2-carboxamide] was 1000 to 10000 nM.
Consider `CC(C)N(Cc1cnco1)C(=O)c1cc2cccc(Cl)c2[nH]1` [Example 67, 7-chloro-N-isopropyl-N-(1,3-oxazol-5-ylmethyl)-1H-indole-2-carboxamide], for which the IC50 lay in the range of 100 to 1000 nM.
Then `COc1nccc2cc(C(=O)NC34CC(F)(C3)C4)n(C)c12` [Example 118, N-{3-fluorobicyclo[1.1.1]pentan-1-yl}-7-methoxy-1-methylpyrrolo[2,3-c]pyridine-2-carboxamide], with 1000 to 10000 nM.
On to `Cc1c(C(=O)NC23CC(C2)C3)[nH]c2c(Cl)cccc12` [Example 102, N-[bicyclo[1.1.1]pentan-1-yl]-7-chloro-3-methyl-1H-indole-2-carboxamide], for which the half-inhibitory concentration (IC50) is 100 to 1000 nM.
Then `CN(C(=O)c1cc2ccc(F)cc2[nH]1)c1ccc(C#N)cc1` [Example 17, N-(4-cyanophenyl)-6-fluoro-N-methyl-1H-indole-2-carboxamide], with 1000 to 10000 nM; and `CN(C(=O)c1cc2cccc(C#N)c2[nH]1)C12CC(C1)C2` [Example 94, N-[bicyclo[1.1.1]pentan-1-yl]-7-cyano-N-methyl-1H-indole-2-carboxamide], with 1000 to 10000 nM.
Turning to `N#Cc1cccc2cc(C(=O)N(CC3CC3)c3ccccn3)[nH]c12` [Example 60, 7-((I1-azaneyl)ethynyl)-N-(cyclopropylmethyl)-N-(pyridin-2-yl)-1H-indole-2-carboxamide], the IC50 was above 10000 nM.
The value for `CN(C(=O)c1cc2ccc(F)cc2[nH]1)c1cccc(C#N)c1` [Example 16, N-(3-cyanophenyl)-6-fluoro-N-methyl-1H-indole-2-carboxamide] was above 10000 nM; that for `CC(C)N1CCC(N(C)C(=O)c2cc3cccc(Cl)c3[nH]2)C1` (centres unmarked) [Example 41, 7-chloro-N-(1-isopropylpyrrolidin-3-yl)-N-methyl-1H-indole-2-carboxamide] was above 10000 nM; that for `COCCN(C(=O)c1cc2cccc(Cl)c2[nH]1)c1ccc(C#N)c(F)c1` [Example 78, 7-Chloro-N-(4-cyano-3-fluorophenyl)-N-(2-methoxyethyl)-1H-indole-2-carboxamide] was 1000 to 10000 nM.
Regarding `CC(C)N(Cc1ccno1)C(=O)c1cc2ccc(F)cc2[nH]1` [Example 8, 6-fluoro-N-isopropyl-N-(1,2-oxazol-5-ylmethyl)-1H-indole-2-carboxamide], the IC50 was 1000 to 10000 nM.
For the compound `Cc1c(C(=O)NC23CC(F)(C2)C3)[nH]c2c(Cl)cccc12` [Example 109, 7-chloro-N-[3-fluorobicyclo[1.1.1]pentan-1-yl]-3-methyl-1H-indole-2-carboxamide], the half-inhibitory concentration (IC50) fell in the range of 100 to 1000 nM.
`N#Cc1cccc2cc(C(=O)N(c3ccc(F)cc3)C3CCOC3)[nH]c12` (centres unmarked) [Example 84, 7-cyano-N-(4-fluorophenyl)-N-(oxolan-3-yl)-1H-indole-2-carboxamide]: the IC50 was in the range of 100 to 1000 nM.
Then `CN(C(=O)c1cc2ccc(F)cc2[nH]1)c1ccccn1` [Example 13, 6-fluoro-N-methyl-N-(pyridin-2-yl)-1H-indole-2-carboxamide], with 1000 to 10000 nM.
As to `CN(C)c1nccc2cc(C(=O)NC34CC(F)(C3)C4)n(C)c12` [Example 125, 7-(dimethylamino)-N-{3-fluorobicyclo[1.1.1]pentan-1-yl}-1-methylpyrrolo[2,3-c]pyridine-2-carboxamide], the IC50 was 1000 to 10000 nM.
The value for `NCCN(CC1CC1)C(=O)c1cc2cccc(Cl)c2[nH]1` [Example 47, N-(2-aminoethyl)-7-chloro-N-(cyclopropylmethyl)-1H-indole-2-carboxamide] was above 10000 nM; that for `O=C(NC12CC(O)(C1)C2)c1cc2cccc(Cl)c2[nH]1` [Example 115, 7-chloro-N-[3-hydroxybicyclo[1.1.1]pentan-1-yl]-1H-indole-2-carboxamide] was above 10000 nM.
On to `O=C(NC1CC(F)(F)C1)c1cc2ccnc(Cl)c2[nH]1` [Example 100, 7-chloro-N-(3,3-difluorocyclobutyl)-1H-pyrrolo[2,3-c]pyridine-2-carboxamide], for which the half-maximal inhibitory concentration (IC50) lay in the range of 100 to 1000 nM.
The value for `Cn1c(C(=O)NC23CC(C2)C3)cc2ccc(C#N)cc21` [Example 155, N-(bicyclo[1.1.1]pentan-1-yl)-6-cyano-1-methyl-1H-indole-2-carboxamide] was 1000 to 10000 nM.
Turning to `Cn1c(C(=O)NC2CC3(CC3)C2)cc2ccnc(Cl)c21` [Example 149, 7-chloro-1-methyl-N-{spiro[2.3]hexan-5-yl}pyrrolo[2,3-c]pyridine-2-carboxamide], the half-maximal inhibitory concentration (IC50) fell in the range of 1000 to 10000 nM.
